Data from US20230373937A1, “INHIBITORS OF SPINSTER HOMOLOG 2 (SPNS2) FOR USE IN THERAPY” (University of Virginia Patent Foundation, priority 2020, published 2023).
Counter-ions that a name gives are not always drawn.

Target: T1, SPNS2 (Mus musculus, UniProt Q91VM4)
T1 construct: expressed in transfected cells; host or cells: HeLa or U937 cells
T1 sequence (Q91VM4 1-549): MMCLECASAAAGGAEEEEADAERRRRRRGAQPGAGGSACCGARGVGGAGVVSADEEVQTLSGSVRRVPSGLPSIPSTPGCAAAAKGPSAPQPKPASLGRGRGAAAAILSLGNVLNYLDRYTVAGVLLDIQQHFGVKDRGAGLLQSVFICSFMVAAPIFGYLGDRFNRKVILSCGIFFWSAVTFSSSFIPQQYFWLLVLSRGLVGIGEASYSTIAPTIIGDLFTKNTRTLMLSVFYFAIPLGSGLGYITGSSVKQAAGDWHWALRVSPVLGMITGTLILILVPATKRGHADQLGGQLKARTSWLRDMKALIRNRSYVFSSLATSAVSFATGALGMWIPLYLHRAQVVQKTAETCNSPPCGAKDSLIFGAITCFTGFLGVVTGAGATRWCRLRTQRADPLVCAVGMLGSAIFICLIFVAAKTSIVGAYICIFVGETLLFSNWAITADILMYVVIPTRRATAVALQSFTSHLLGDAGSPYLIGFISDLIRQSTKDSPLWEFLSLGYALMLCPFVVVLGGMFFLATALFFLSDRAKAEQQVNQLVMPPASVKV
Test: S1P transporter assay: S1P release from whole cells expressing SPNS2
Format: cell-based
Settings: HeLa or U937 cells expressing mouse SPNS2; 18 hours; S1P in media measured by LC-MS; read-out: IC50 (in vitro inhibition against SPNS2)
Procedure: Transporter assays are vectorial and therefore require measurement of the transported analyte in different compartments. The S1P transporter SPNS2 only exports S1P, which obviates measuring uptake of S1P into transporter-expressing cells. Thus, transporter activity was determined by quantifying S1P release from whole cells expressing SPNS2. SPNS2 inhibitor potency was assessed using whole cell assays. HeLa or U937 cells expressing mouse SPNS2 were used to determine inhibitor potency (IC50). Cells were plated onto 12 well plates and assayed when the cell monolayers became confluent. Cell growth media (RPMI-1640 containing 10% fetal bovine serum) was replaced with 2 mL of serum-free media (RPMI-1640) containing fatty acid free bovine serum albumin (BSA) (0.2% w/v) and supplemented with 4-deoxypyridoxine (DOP) (1 mM), NaF (2 mM), Na3VO4 (0.2 mM) to inhibit S1P degradation. Test articles (1×10-9-1×10^-4 M) were assayed in duplicate or triplicate. After 18 hours, media was collected, an internal recovery standard (0.005 mL of 5×10^-7 M deuterated (d7) S1P in methanol) was added, the BSA was precipitated with trichloroacetic acid and the bound S1P extracted with methanol. S1P and S1P-d7 were measured by liquid chromatography mass spectrometry. Inhibitor potency at the human SPNS2 ortholog was determined by an analogous assay using U-937 cells, which endogenously express human SPNS2.

For `CCCCCCCCCCc1ccc(-c2noc(CNC(=O)[C@@H]3CCCCN3)n2)cc1` [Compound 9i, (S)—N-((3-(4-decylphenyl)-1,2,4-oxadiazol-5-yl)methyl)piperidine-2-carboxamide hydrochloride], the IC50 was at most 2000 nM.
`CCCCCCCCCCc1ccc(-c2noc(CNC(=O)CNC)n2)cc1` [Compound 9l, N-((3-(4-decylphenyl)-1,2,4-oxadiazol-5-yl)methyl)-2-(methylamino)acetamide hydrochloride] showed an IC50 of at most 2000 nM.
With `CCCCCCCCCCc1ccc(-c2noc(CNC(=O)C[C@@H](O)CN)n2)cc1` [Compound 9y, (R)-4-amino-N-((3-(4-decylphenyl)-1,2,4-oxadiazol-5-yl)methyl)-3-hydroxybutanamide hydrochloride] the IC50 was over 2000 nM.
For `CCCCCCCCCCc1ccc(-c2noc([C@@H]3CCC[C@@H](N)C3)n2)cc1` (racemic) [Compound 5q, (±)-trans-3-(3-(4-decylphenyl)-1,2,4-oxadiazol-5-yl)cyclohexan-1-amine hydrochloride], the IC50 was over 2000 nM.
For `CCCCCCCCCCc1ccc(-c2noc(CNC(=O)[C@@H](N)[C@@H](C)CC)n2)cc1` [Compound 9n, (2S,3S)-2-amino-N-((3-(4-decylphenyl)-1,2,4-oxadiazol-5-yl)methyl)-3-methylpentanamide hydrochloride], the IC50 was over 2000 nM.
Work on `CCCCCCCCCCc1ccc(-c2noc(CC(CN)OC(C)=O)n2)cc1` (stereo not drawn) [Compound 5n, 1-amino-3-(3-(4-decylphenyl)-1,2,4-oxadiazol-5-yl)propan-2-yl acetate hydrochloride] yielded an IC50 of over 2000 nM.
Compound `CCCCCCCCCCc1ccc(-c2noc(CNC(=O)[C@@H](N)Cc3ccccc3)n2)cc1` [Compound 9ac, (S)-2-amino-N-((3-(4-decylphenyl)-1,2,4-oxadiazol-5-yl)methyl)-3-phenylpropanamide hydrochloride] has an IC50 of over 2000 nM.
Work on `CCCCCCCCCCc1ccc(-c2noc(CNC(=O)CCCN)n2)cc1` [Compound 9d, 4-amino-N-((3-(4-decylphenyl)-1,2,4-oxadiazol-5-yl)methyl)butanamide hydrochloride] yielded an IC50 of at most 2000 nM.
Compound `CCCCCCCCCCc1ccc(-c2noc(CCCN)n2)cc1` [Compound 5e, 3-(3-(4-decylphenyl)-1,2,4-oxadiazol-5-yl)propan-1-amine 2,2,2-trifluoroacetate] has an IC50 of at most 2000 nM.
With `CCCCCCCCCOc1ccc(-c2noc(CCCN)n2)cc1` [Compound 5t, 3-(3-(4-(nonyloxy)phenyl)-1,2,4-oxadiazol-5-yl)propan-1-amine hydrochloride] the IC50 was over 2000 nM.
In the case of `CCCCCCCCCCc1ccc(-c2noc(CNC(=O)[C@H]3CCNC3)n2)cc1` [Compound 9x, (S)—N-((3-(4-decylphenyl)-1,2,4-oxadiazol-5-yl)methyl)pyrrolidine-3-carboxamide hydrochloride], the IC50 is reported as over 2000 nM.
`CCCCCCCCCCc1ccc(-c2noc(CNC(=O)[C@@H]3C[C@H](O)CN3)n2)cc1` [Compound 9v, (2S,4S)—N-((3-(4-decylphenyl)-1,2,4-oxadiazol-5-yl)methyl)-4-hydroxypyrrolidine-2-carboxamide hydrochloride] gave an IC50 of over 2000 nM.
Work on `CCCCCCCCCc1ccc(Cc2noc(CCCN)n2)cc1` [Compound 5r, 3-(3-(4-nonylbenzyl)-1,2,4-oxadiazol-5-yl)propan-1-amine hydrochloride] yielded an IC50 of over 2000 nM.
For `CCCCCCCCCCc1ccc(-c2noc([C@H](CCCCN)NC(C)=O)n2)cc1` [Compound 21, (S)—N-(5-amino-1-(3-(4-decylphenyl)-1,2,4-oxadiazol-5-yl)pentyl)acetamide hydrochloride], the IC50 was over 2000 nM.
In the case of `CCCCCCCCCCc1ccc(-c2noc(CNC(=O)C[C@@H]3CCCNC3)n2)cc1` [Compound 9o, (S)—N-((3-(4-decylphenyl)-1,2,4-oxadiazol-5-yl)methyl)-2-(piperidin-3-yl)acetamide hydrochloride], the IC50 is reported as over 2000 nM.
Compound `CCCCCCCCCCc1ccc(-c2noc([C@@H](N)CCCCN)n2)cc1` [Compound 19a, (S)-1-(3-(4-decylphenyl)-1,2,4-oxadiazol-5-yl)pentane-1,5-diamine hydrochloride] has an IC50 of at most 2000 nM.
`CCCCCCCCCCc1ccc(-c2noc([C@@H]3CCN(C(=O)[C@H](C)N)C3)n2)cc1` [Compound 9ak, (S)-2-amino-1-((R)-3-(3-(4-decylphenyl)-1,2,4-oxadiazol-5-yl)pyrrolidin-1-yl)propan-1-one 2,2,2-trifluoroacetate] showed an IC50 of at most 2000 nM.
`CCCCCCCCCCc1ccc(-c2noc(CNC(=O)C3CCNCC3)n2)cc1` [Compound 9p, N-((3-(4-decylphenyl)-1,2,4-oxadiazol-5-yl)methyl)piperidine-4-carboxamide hydrochloride] was tested, and the IC50 was over 2000 nM.
With `CCCCCCCCCCc1ccc(-c2noc(CNC(=O)C3CCCCCN3)n2)cc1` (stereo not drawn) [Compound 9u, N-((3-(4-decylphenyl)-1,2,4-oxadiazol-5-yl)methyl)azepane-2-carboxamide hydrochloride] the IC50 was at most 2000 nM.
Work on `CCCCCCCCCCc1ccc(-c2noc([C@@H]3CCN(C(=O)CN)C3)n2)cc1` [Compound 9al, (R)-2-amino-1-(3-(3-(4-decylphenyl)-1,2,4-oxadiazol-5-yl)pyrrolidin-1-yl)ethan-1-one 2,2,2-trifluoroacetate] yielded an IC50 of over 2000 nM.
Work on `CCCCCCCCCCc1ccc(-c2noc(CC[C@@H](N)C(=O)O)n2)cc1` [Compound 5y, (R)-2-amino-4-(3-(4-decylphenyl)-1,2,4-oxadiazol-5-yl)butanoic acid hydrochloride] yielded an IC50 of over 2000 nM.
With `CCCCCCCCCCc1ccc(-c2noc(CN3CCNCC3)n2)cc1` [Compound 5h, 3-(4-decylphenyl)-5-(piperazin-1-ylmethyl)-1,2,4-oxadiazole 2,2,2-trifluoroacetate] the IC50 was at most 2000 nM.
`CCCCCCCCCCc1ccc(-c2noc(CC(O)CN(C)C)n2)cc1` (stereo not drawn) [Compound 7b, 1-(3-(4-decylphenyl)-1,2,4-oxadiazol-5-yl)-3-(dimethylamino)propan-2-ol hydrochloride] showed an IC50 of over 2000 nM.
`CCCCCCCCCCc1ccc(-c2noc(CNC(=O)[C@@H]3CCCNC3)n2)cc1` [Compound 9ag, (R)—N-((3-(4-decylphenyl)-1,2,4-oxadiazol-5-yl)methyl)piperidine-3-carboxamide hydrochloride] showed an IC50 of at most 2000 nM.
`CCCCCCCCCCc1ccc(-c2noc(CNC(=O)[C@@H]3CC[C@@H](N)C3)n2)cc1` [Compound 9ah, (1R,3R)-3-amino-N-((3-(4-decylphenyl)-1,2,4-oxadiazol-5-yl)methyl)cyclopentane-1-carboxamide hydrochloride] gave an IC50 of at most 2000 nM.
`CCCCCCCCCCc1ccc(-c2noc([C@@H]3CCN(C(=O)[C@@H](N)C(C)C)C3)n2)cc1` [Compound 9ai, (S)-2-amino-1-((R)-3-(3-(4-decylphenyl)-1,2,4-oxadiazol-5-yl)pyrrolidin-1-yl)-3-methylbutan-1-one 2,2,2-trifluoroacetate] gave an IC50 of at most 2000 nM.
For `CCCCCCCCCCc1ccc(-c2noc(CNC(=O)[C@@H](N)CO)n2)cc1` [Compound 9s, (S)-2-amino-N-((3-(4-decylphenyl)-1,2,4-oxadiazol-5-yl)methyl)-3-hydroxypropanamide hydrochloride], the IC50 was over 2000 nM.
Compound `CCCCCCCCCCc1ccc(-c2noc(CNC(=O)[C@H](C)N)n2)cc1` [Compound 9a, (S)-2-amino-N-((3-(4-decylphenyl)-1,2,4-oxadiazol-5-yl)methyl)propanamide hydrochloride] has an IC50 of at most 2000 nM.
`CCCCCCCCCCc1ccc(-c2noc(CNC(=O)CCCCN)n2)cc1` [Compound 9g, 5-amino-N-((3-(4-decylphenyl)-1,2,4-oxadiazol-5-yl)methyl)pentanamide hydrochloride] was tested, and the IC50 was at most 2000 nM.
Work on `CCCCCCCCCCc1ccc(-c2noc(CCCN3CCCCC3)n2)cc1` [Compound 6e, 3-(4-decylphenyl)-5-(3-(piperidin-1-yl)propyl)-1,2,4-oxadiazole hydrochloride] yielded an IC50 of over 2000 nM.
Compound `CCCCCCCCCCc1ccc(-c2noc(CC(O)CN)n2)cc1` (stereo not drawn) [Compound 5g, 1-amino-3-(3-(4-decylphenyl)-1,2,4-oxadiazol-5-yl)propan-2-ol hydrochloride] has an IC50 of over 2000 nM.
In the case of `CCCCCCCCCOc1ccc(-c2noc(CCCN)n2)cc1C(F)(F)F` [Compound 5u, 3-(3-(4-(nonyloxy)-3-(trifluoromethyl)phenyl)-1,2,4-oxadiazol-5-yl)propan-1-amine hydrochloride], the IC50 is reported as over 2000 nM.
Compound `CCCCCCCCCCc1ccc(-c2noc([C@H](N)CCCCN)n2)cc1` [Compound 19d, (R)-1-(3-(4-decylphenyl)-1,2,4-oxadiazol-5-yl)pentane-1,5-diamine dihydrochloride] has an IC50 of over 2000 nM.
